# The supplement of paper PMC11451515
# Experiments:
# Experiment in all cases: AUC of viability dose-response curve (% viability x log10 dose units); higher = less sensitive
# Settings in all cases: 48 h
# NOMO1 = system: NOMO1
# Method in brief: (§1)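 Area under the curve was integrated by trapezoidal rule from a log-logistic fit of normalised viability, with curves exceeding full viability scaled and quality-control failures removed. The fit had four parameters over log10 doses. Viability came from CellTiter-Glo One luminescence, normalised per plate to DMSO and cell-free wells, after leukemia cells adapted to each medium (500 or 1000 cells/well, 1536-well plates) were exposed to library compounds in DMSO for 48 h at 37°C. The 11 threefold doses ran from 47 μM to 0.79 nM.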
# P12-Ichikawa = system: P12-Ichikawa
# Method in brief: as §1
# SEM cells = system: SEM cells
# Method in brief: as §1
# [1] = RPMI 5 mM glucose + 10% dialyzed FBS
SMILES,AUC of viability dose-response curve (NOMO1; HPLM + 10% dialyzed FBS),AUC of viability dose-response curve (NOMO1; RPMI 5 mM glucose + 10% FBS),AUC of viability dose-response curve (NOMO1; [1]),AUC of viability dose-response curve (P12-Ichikawa; HPLM + 10% dialyzed FBS),AUC of viability dose-response curve (P12-Ichikawa; RPMI 5 mM glucose + 10% FBS),AUC of viability dose-response curve (P12-Ichikawa; [1]),AUC of viability dose-response curve (SEM cells; HPLM + 10% dialyzed FBS),AUC of viability dose-response curve (SEM cells; RPMI 5 mM glucose + 10% FBS),AUC of viability dose-response curve (SEM cells; [1])
Clc1ccc(C(c2ccc(Cl)cc2)[n+]2ccn(CC(OCc3ccc(Cl)cc3Cl)c3ccc(Cl)cc3Cl)c2)cc1 (centres undefined),441,441,440,438,432,444,432,415,440
CN(C)C(=O)[C@H](O)[C@H](Cc1ccccc1)NC(=O)c1cc2cc(Cl)ccc2[nH]1,418,456,435,448,442,456,359,340,359
CCC[C@H](Nc1nc(-c2ccc(NC(=O)NCC)c(OC)c2)ncc1C)c1cccnc1,287,251,251,195,194,205,–,–,–
N#Cc1cc(NC(=O)Nc2nnc(-c3ccncc3)s2)ccc1-c1cn[nH]c1,473,476,461,463,452,465,451,462,467
Clc1ccc(CCC(Cn2ccnc2)Sc2c(Cl)cccc2Cl)cc1 (centres undefined),449,402,432,450,444,404,366,422,408
CC(C)(Sc1cc(C(C)(C)C)c(O)c(C(C)(C)C)c1)Sc1cc(C(C)(C)C)c(O)c(C(C)(C)C)c1,449,428,436,445,414,405,385,415,409
CCOc1ccccc1N/N=C1/C(=O)N(c2nc(-c3ccccc3)cs2)N=C1C,428,447,419,444,467,450,368,371,358
Cc1nnc(C(C)C)n1[C@@H]1C[C@H]2CC[C@@H](C1)N2CC[C@H](NC(=O)C1CCC(F)(F)CC1)c1ccccc1,445,411,394,460,454,437,425,379,419
OC[C@H]1OC(O)C[C@@H](O)[C@@H]1O (some centres undefined),463,466,466,463,470,475,439,441,447
O=C(Nc1ccccc1)Nc1ccc(-c2ccc(C(=O)[C@@H]3CCC[C@H]3C(=O)O)cc2)cc1,406,441,409,444,444,443,476,467,468
CC1=CC/2=C(C=C1C)N(C[C@@H](O)[C@@H](O)[C@@H](O)CO)C/3=N/C(=O)NC(=O)C3=N2,462,472,460,458,449,451,474,428,474
Cc1cc(/C=c2/sc3nc4ccccc4n3c2=O)c(C)n1-c1ccccc1,472,455,472,471,476,467,473,466,473
CN1CCC(CNc2ccc3ncc(-c4cccc(OC(F)(F)F)c4)n3n2)CC1,429,399,425,449,435,420,329,334,340
CC(C)[C@H](O)C(=O)N[C@@H](C)C(=O)N[C@@H]1C(=O)N(C)CCc2ccccc21,444,472,460,447,450,423,431,441,393
C/C=C(\C)C(=O)N[C@@H](c1ccccc1)[C@@H](O)C(=O)O[C@H]1C[C@@]2(O)[C@@H](OC(=O)c3ccccc3)[C@@H]3[C@]4(OC(C)=O)CO[C@@H]4C[C@H](O)[C@@]3(C)C(=O)[C@H](OC(C)=O)C(=C1C)C2(C)C,–,–,–,102,85.3,130,104,85.3,87.7
NC(=O)c1nnn(Cc2cc(Cl)c(C(=O)c3ccc(Cl)cc3)c(Cl)c2)c1N,465,455,470,463,465,464,471,462,464
CC1(C)CCC(C)(C)c2cc(NC(=O)c3ccc(C(=O)O)cc3)ccc21,455,445,435,463,470,469,464,465,451
CCc1nc(N)nc(N)c1-c1ccc(Cl)cc1,381,421,427,352,427,389,381,392,399

SMILES,AUC of viability dose-response curve (NOMO1; HPLM + 10% dialyzed FBS),AUC of viability dose-response curve (NOMO1; RPMI 5 mM glucose + 10% FBS),AUC of viability dose-response curve (NOMO1; [1]),AUC of viability dose-response curve (P12-Ichikawa; HPLM + 10% dialyzed FBS),AUC of viability dose-response curve (P12-Ichikawa; RPMI 5 mM glucose + 10% FBS),AUC of viability dose-response curve (P12-Ichikawa; [1]),AUC of viability dose-response curve (SEM cells; HPLM + 10% dialyzed FBS),AUC of viability dose-response curve (SEM cells; RPMI 5 mM glucose + 10% FBS),AUC of viability dose-response curve (SEM cells; [1])
CN(C)CCc1c[nH]c2ccc(Cn3cncn3)cc12,318,277,311,329,312,286,267,226,257
C[C@@H](Cc1cc2c(c(C(N)=O)c1)N(CCCO)CC2)NCCOc1ccccc1OCC(F)(F)F,457,458,466,472,472,472,438,465,463
CCC(=O)N1CCN(CC1)C2=C(C=C(C=C2)N3C(=O)\C=C/C4=C3C5=CC(=CC=C5N=C4)C6=CN=C7C=CC=CC7=C6)C(F)(F)F,376,388,352,406,328,347,286,297,300
Clc1ccc(C(c2ccccc2Cl)C(Cl)Cl)cc1 (centres undefined),427,456,448,452,436,432,–,–,–
CCC(=O)O[C@@]1(CC[C@H]2[C@@H]3CCC/4=C/C(=O)CC[C@]4(C)[C@H]3CC[C@]12C)C(=O)CO,457,467,458,454,452,455,–,–,–
O=C(CCCN1CCC(O)(c2ccc(Cl)cc2)CC1)c1ccc(F)cc1,467,471,470,459,466,470,–,–,–
CCC(=O)NC[C@H](Cc1ccc(OCCc2nc(-c3ccccc3)oc2C)cc1)N/C(C)=C\C(=O)c1ccc(C(F)(F)F)cc1,433,438,462,410,406,398,–,–,–
NCCOc1cc(C(=O)Nc2cc(OCCN)c3ccccc3n2)nc(C(=O)Nc2cc(OCCN)c3ccccc3n2)c1,–,–,–,–,–,–,148,122,170
COc1cc(N2CCC(N3CCN(C)CC3)CC2)ccc1Nc1ncc(Cl)c(Nc2ccccc2[S+](=O)([O-])C(C)C)n1,–,–,–,–,–,–,284,273,300
Cc1cnc(Nc2cccc(CN3CCOCC3)c2)nc1Nc1cccc([S+](=O)([O-])NC(C)(C)C)c1,–,–,–,–,–,–,329,345,308
O=C1c2ccccc2-c2n[nH]c3cccc1c23,429,433,449,416,401,422,–,–,–
C/C1=C/C(=C(/CNC(=O)C2=CC(=CC3=C2C=N[N]3C4CCCC4)C5=CC=C(CN6CCOCC6)C=C5)C(=O)N1)C,448,456,451,456,462,452,–,–,–
CC(=O)N(O)CCCCCNC(=O)CCC(=O)N(O)CCCCCNC(=O)CCC(=O)N(O)CCCCCN.C[S+](=O)([O-])O,204,199,261,115,225,249,–,–,–
CC(C)C[C@H](CC(=O)O)C(=O)N[C@@H](Cc1c[nH]c2ccccc12)C(=O)N[C@@H](C)c1ccccc1,428,446,465,413,419,421,–,–,–
OC(=O)CNC(=O)\C1=C(/O)C2=CC=CC=C2N(CC3=CC=CC=C3)C1=O,466,430,450,462,456,433,–,–,–
COc1c(N2C[C@@H]3CCCN[C@@H]3C2)c(F)cc2c(=O)c(C(=O)O)cn(C3CC3)c12.Cl.O,390,456,437,434,394,399,–,–,–
COc1cc2cc(c1Cl)N(C)C(=O)C[C@H](OC(=O)C(C)C)[C@]1(C)O[C@@H]1[C@H](C)[C@@H]1C[C@@](O)(NC(=O)O1)[C@H](OC)/C=C/C=C(\C)C2,–,–,–,37.9,42.6,59.7,66.3,51.6,49.3
CC(C)[C@]12O[C@H]1[C@@H]3O[C@@]34[C@@]5(C)CC\C6=C(COC6=O)/[C@@H]5C[C@@H]7O[C@]47[C@@H]2O,49.2,49,45.7,59,56.8,62.8,–,–,–
